Test results: patent US9795597B2, “Cyclopropylamines as LSD1 inhibitors” (GlaxoSmithKline Intellectual Property (No.2) Limited, priority 2011, dated 2017)
Where a name gives a salt, the structure may show the parent alone.

Columns and labels:
MAO-B = molecular target: T1, MAO-B (Homo sapiens, UniProt P27338); test: Biochemical assay for MAO-B activity (FLINT, benzylamine/amplex red); details: average of two or more tests; 30 min preincubation of enzyme and compound; read-out: MAOB PIC50 MEAN (converted)
T1 construct: purchased Gentest-BD Biosciences 456284
T1 sequence (P27338 1-520): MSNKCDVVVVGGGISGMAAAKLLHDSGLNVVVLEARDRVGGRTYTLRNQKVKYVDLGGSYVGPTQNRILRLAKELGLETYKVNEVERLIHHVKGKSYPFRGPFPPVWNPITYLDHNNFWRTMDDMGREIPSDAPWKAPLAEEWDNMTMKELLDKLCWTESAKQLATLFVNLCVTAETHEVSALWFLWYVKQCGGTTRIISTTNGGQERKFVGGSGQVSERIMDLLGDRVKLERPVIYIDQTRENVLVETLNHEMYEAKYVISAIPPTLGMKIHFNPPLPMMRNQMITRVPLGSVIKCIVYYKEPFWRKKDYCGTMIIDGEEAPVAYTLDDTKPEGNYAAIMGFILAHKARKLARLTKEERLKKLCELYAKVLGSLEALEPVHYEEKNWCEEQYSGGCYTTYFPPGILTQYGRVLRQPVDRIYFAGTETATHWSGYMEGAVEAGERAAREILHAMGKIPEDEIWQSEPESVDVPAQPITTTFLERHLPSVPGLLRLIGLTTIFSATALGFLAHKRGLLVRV
Method: Biochemical Assay for MAO-B Activity
The MAO-B FLINT assay is performed in a buffer containing 50 mM potassium phospate, pH 7.4, in milliQ ultrapure water. […] The enzyme and test compound are allowed to incubate together for 30 minutes at room temperature. Five microliters of the substrate mix are then added to each well of the plate to initiate the reaction. The plates are covered, protected from light and allowed to incubate for one hour at room temperature. […] Percent inhibition is calculated based on no compound and no enzyme controls, and inhibition curves are then plotted to determine PIC50 values.

LSD1 = molecular target: T2, LSD1 (Homo sapiens, UniProt O60341); test: Biochemical assay for LSD-1 activity (luminescence, H3K4 dimethylated peptide substrate); details: average of two or more tests; 30 min preincubation of enzyme and compound; read-out: LSD1 PIC50 MEAN (converted)
T2 construct: made in house
Method: Biochemical Assay for LSD-1 Activity
The LSD-1 luminescence assay is performed in a buffer containing 25 mM Tris, pH 7.5, 50 mM potassium chloride, 0.02% heat-denatured BSA, 2 mM CHAPS and milliQ ultrapure water. […] The enzyme and test compound are allowed to incubate together for 30 minutes at room temperature. Two microliters of the substrate mix are then added to each well of the plate to initiate the reaction. The plates are covered, protected from light and allowed to incubate for two hours at room temperature. Then, 4 uL of HyPerBlu peroxide detection luminescence reagent (Lumigen/Beckman Coulter, cat# HPB-00005) is added to each well to quench the demethylase reaction and generate the peroxide-dependent luminescence signal. The plates are then incubated for 15-30 minutes in the dark at room temperature prior to being read for Luminescence using a Perkin Elmer Viewlux plate reader. Percent inhibition is calculated based on no compound and no enzyme controls, and inhibition curves are then plotted to determine PIC50 values.

| Structure (SMILES) | IC50 (MAO-B) [µM] | IC50 (LSD1) [nM] |
| --- | --- | --- |
| CC(N[C@H]1CC1c1ccccc1)C1CCNCC1 (stereo in doubt) [Example 24, [trans-2-Phenylcyclopropyl][1-(4-piperidinyl)ethyl]amine] | 63.1 | 10 |
| c1ccc(C2C[C@@H]2NCC2CNCCO2)cc1 (stereo in doubt) [Example 25, N-(2-Morpholinylmethyl)-trans-2-phenylcyclopropanamine] | 12.6 | 20 |
| CC(C)(C)OC(=O)N1CCC(CN[C@@H]2C[C@H]2c2ccccc2)CC1 [Example 2, 1,1-Dimethylethyl 4-({[(1R,2S)-2-phenylcyclopropyl]amino}methyl)-1-piperidinecarboxylate] | 0.631 | 39.8 |
| CC(C)(C)OC(=O)N1CCC(CN[C@H]2C[C@@H]2c2ccccc2)CC1 [Example 3, 1,1-Dimethylethyl 4-({[(1S,2R)-2-phenylcyclopropyl]amino}methyl)-1-piperidinecarboxylate] | 7.94 | 631 |
| O=C(O)c1ccc(CN2CC[C@H](CN[C@@H]3C[C@H]3c3ccccc3)C2)cc1 [Example 28a, 4-{[(3R)-3-({[(1R,2S)-2-Phenylcyclopropyl]amino}methyl)-1-pyrrolidinyl]methyl}benzoic acid] | 31.6 | 158 |
| O=C(O)c1ccc(CN2CC[C@@H](CN[C@@H]3C[C@H]3c3ccccc3)C2)cc1 [Example 28b, 4-{[(3S)-3-({[(1R,2S)-2-Phenylcyclopropyl]amino}methyl)-1-pyrrolidinyl]methyl}benzoic acid] | 25.1 | 79.4 |
| O=C(O)c1ccc(CN2CCC(CN[C@@H]3C[C@H]3c3ccccc3)CC2)cc1 [Example 29, 4-((4-((((1R,2S)-2-phenylcyclopropyl)amino)methyl)piperidin-1-yl)methyl)benzoic acid] | 25.1 | 158 |
| O=C(O)c1ccc(CCCN2CCC(CN[C@@H]3C[C@H]3c3ccccc3)CC2)cc1 [Example 30, 4-{3-[4-({[(1R,2S)-2-Phenylcyclopropyl]amino}methyl)-1-piperidinyl]propyl}benzoic acid 2 HCl] | 31.6 | 12.6 |
| O=C(O)CCN1CCC(CN[C@@H]2C[C@H]2c2ccccc2)CC1 [Example 71, 3-(4-((((1R,2S)-2-Phenylcyclopropyl)amino)methyl)piperidin-1-yl)propanoic acid] | 7.94 | 100 |
| O=C(O)c1ccc(CCN2CCC(CN[C@@H]3C[C@H]3c3ccccc3)CC2)cc1 [Example 123, 4-(2-(4-((((1R,2S)-2-phenylcyclopropyl)amino)methyl)piperidin-1-yl)ethyl)benzoic acid] | 20 | 31.6 |
| O=C(O)CCN1CC[C@H](CN[C@@H]2C[C@H]2c2ccccc2)C1 [Example 150, 3-((R)-3-((((1R,2S)-2-Phenylcyclopropyl)amino)methyl)pyrrolidin-1-yl)propanoic acid] | 79.4 | 25.1 |
